What was measured:
[1] = liver microsomal metabolic stability, canine
Method: (§1) Hepatic Microsomal Metabolic Stability
(§2) A13bGa1 was co-incubated with the mouse, rat, canine, monkey and human […] and the incubation medium at a final drug concentration of 1 μM in the incubation system for 60 minutes. Samples were taken and analyzed at time points 0, 15, 30, 45 and 60 minutes during the incubation. The reaction was terminated by adding an amount of acetonitrile solution containing the internal standard. […] The residual percentage, half-life, intrinsic clearance, amplified clearance, hepatic clearance and hepatic extraction ratio were determined. The entire experiment was performed in triplicate. All data calculations were performed by Microsoft Excel software. Peak areas were detected by extracting the ionic spectrum. The in vitro half-life (t1/2) of the parent compound was detected by fitting the natural logarithm of the percentage elimination of the parent compound linearly to time.
(§3) The in vitro intrinsic clearance (in μL/min/mg protein) was calculated using the following equation: in vitro CLint=kV/N
(§4) The amplified clearance (in mL/min/kg) was calculated using the following equation: Amplified CLint=kV/N×the amplification factor
(§5) The hepatic clearance (in mL/min/kg) was calculated using the following equation: The predicted hepatic CLH=(Q×Fu/RB×the amplified CLint)/(Q+Fu/RB×the amplified CLint) • V=the incubation volume per well (0.2 mL); • N=the total amount of protein (mg) • Q=the hepatic blood flow (mL/min/kg) • Fu=the plasma free rate (assumed to be 1) • RB=the whole blood partition coefficient (assumed to be 1)
(§6) The hepatic uptake rate was calculated using the following equation:
(§7) The hepatic extraction ratio (ER)=(the predicted hepatic CLH)/Q

[2] = tested on: MRC5 cells (human embryonic lung fibroblast cell line); assay: in vitro killing of induced senescent MRC5 cells (CCK-8); type: cell-based; conditions: lung-derived, FIG. 3G
From the text: (§8) Induction of the Cellular Senescence

[3] = plasma metabolic stability, all species; type: in vitro ADME; conditions: human, monkey, canine, rat, and mouse; preliminary test
Method: Plasma Metabolic Stability
Termination of the reaction was accomplished by the addition of 3× volume of acetonitrile and centrifugation at 16000 g for 20 minutes. The supernatant was taken for a LC-MS/MS analysis. The chromatographic column: Waters XSelect HSS T3; the flow rate: 500 μL/min; the eluent: A, water (0.1% formic acid); B, acetonitrile (0.1% formic acid); the gradient elution: 0-1.5 min, 5% B, 1.5-9 min, 5%-80% B, 9-12 min, 80%-100% B, 12-14 min, 100% B, 14-14.3 min, 100%-5% B, 14.3-15 min, 5% B.

[4] = tested on: normal cells (HEF, HELF, A549, MRC5, BJ, HUVEC); assay: in vitro toxicity to normal (non-senescent) cells, multiple cell models (CCK-8); type: cell-based, human; conditions: especially some cells of primary origins sensitive to Bcl-xL inhibition
From the text: as §8

[5] = target: E. coli-derived β-galactosidase (Escherichia coli, UniProt P00722); assay: in vitro enzymatic hydrolysis of the prodrug by β-galactosidase (HPLC); type: biochemical; conditions: role: substrate, 10 μM, β-galactosidase 10 U/μM, PBS 0.01 M pH 7.3, 37 °C, 6 hours, FIG. 2C
Chain of E. coli-derived β-galactosidase (P00722 whole entry): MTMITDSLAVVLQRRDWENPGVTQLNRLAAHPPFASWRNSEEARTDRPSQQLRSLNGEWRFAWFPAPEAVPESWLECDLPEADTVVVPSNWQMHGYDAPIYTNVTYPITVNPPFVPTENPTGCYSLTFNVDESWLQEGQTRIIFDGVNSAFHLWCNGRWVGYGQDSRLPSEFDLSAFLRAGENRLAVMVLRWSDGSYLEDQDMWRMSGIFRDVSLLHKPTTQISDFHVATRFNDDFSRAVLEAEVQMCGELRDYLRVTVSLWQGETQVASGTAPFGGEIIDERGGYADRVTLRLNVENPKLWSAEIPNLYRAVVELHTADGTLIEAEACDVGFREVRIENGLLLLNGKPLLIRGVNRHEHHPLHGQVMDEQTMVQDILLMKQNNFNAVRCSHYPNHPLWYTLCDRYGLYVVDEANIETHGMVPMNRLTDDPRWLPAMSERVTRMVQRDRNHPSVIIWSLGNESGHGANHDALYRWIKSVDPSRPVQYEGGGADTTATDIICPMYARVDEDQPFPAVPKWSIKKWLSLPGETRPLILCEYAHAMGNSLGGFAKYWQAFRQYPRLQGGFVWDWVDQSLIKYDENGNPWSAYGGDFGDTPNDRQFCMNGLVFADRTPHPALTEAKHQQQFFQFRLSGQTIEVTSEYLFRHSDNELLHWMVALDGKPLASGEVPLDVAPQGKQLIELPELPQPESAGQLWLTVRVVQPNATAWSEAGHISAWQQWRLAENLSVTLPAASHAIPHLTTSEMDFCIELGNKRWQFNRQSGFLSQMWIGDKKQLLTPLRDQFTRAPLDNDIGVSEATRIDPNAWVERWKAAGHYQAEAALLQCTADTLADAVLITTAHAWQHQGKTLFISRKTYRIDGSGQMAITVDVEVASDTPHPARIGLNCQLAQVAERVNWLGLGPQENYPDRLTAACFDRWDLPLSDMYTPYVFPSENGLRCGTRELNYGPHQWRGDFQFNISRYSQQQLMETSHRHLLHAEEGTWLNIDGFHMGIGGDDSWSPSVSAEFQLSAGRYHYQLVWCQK
Method: Study of the Hydrolysis Reaction of A13bG
The in vitro enzymatic hydrolysis reaction was carried out using E. coli-derived β-galactosidase (Sigma) in PBS solution (0.01 M, pH 7.3) at a reaction concentration of 10 μM for both A13 and A13bG, and for 6 hours at 37 °C after the addition of β-galactosidase (10 U/μM). The hydrolysis reaction was monitored by the high performance liquid chromatography (HPLC). The compound A13 and the prodrug A13bG without enzyme reaction were analyzed by HPLC at the same conditions as the references. The chromatographic column model: Waters Acquity BEH C4, the conditions: 0.04 ml/min, (water (0.1% acetic acid)): the acetonitrile gradient elution: 98:2 1 min, 5:95 13 min, 5:95 18 min, 2:98 20 min.

[6] = liver microsomal metabolic stability, rat
Method: as §1, §2, §3, §4, §5, §6, §7

[7] = liver microsomal metabolic stability, monkey
Method: as §1, §2, §3, §4, §5, §6, §7

[8] = tested on: mouse model of Bleomycin-induced pulmonary fibrosis; assay: Bleomycin-induced pulmonary fibrosis model, overall therapeutic effect; type: in vivo, C57 mice; conditions: 5 mg/kg i.p., four weeks
Method: A. Modelling of a mouse model of Bleomycin-induced pulmonary fibrosis, and the schematic diagram of treatment. Mice were modelled with Bleomycin administered via tracheal instillation on day 0, and the treatment with intraperitoneal injection of the drug was started on day 4. The drug was administered for 3 consecutive days per week, followed by a 4-day withdrawal, for 4 weeks.
All drugs were mixed in 85% physiological saline, 5% DMSO (Sigma, D8418) and 10% Solutol HS 15 (Sigma, 42966), and administered to mice by intraperitoneal (i.p.) injection. To treat the bleomycin-injured young mice, A13 (2 mg/kg), A13bGa1 (5 mg/kg), or an empty vehicle control was administered three consecutive days per week for four weeks. A1331852 (abbreviated as A13) was purchased from MCE.
Bleomycin-Induced Pulmonary Fibrosis
Bleomycin was purchased from Selleck. As previously reported (Bivas-Benita et al., Eur J Pharm Biopharm 61, 214-218 (2005)), a transtracheal injection of bleomycin (2 mg/kg) was performed to the young male C57 mice (8-10 weeks old) to induce lung fibrosis. Drug treatment was initiated four days after modelling, and the drug was administered three consecutive days per week for four consecutive weeks, after which the mice were executed for material collection.

[9] = tested on: senescent cells (HEF, HELF, A549, MRC5, BJ, HUVEC); assay: in vitro killing of senescent cells, multiple cell models (CCK-8); type: cell-based, human; conditions: FIG. 3B-3G
From the text: as §8

Structure (SMILES): Cc1c(-c2ccc(N3CCc4cccc(C(=O)Nc5nc6ccccc6s5)c4C3)nc2C(=O)OCc2ccc(O[C@@H]3O[C@H](CO)[C@H](O)[C@H](O)[C@H]3O)c([N+](=O)[O-])c2)cnn1CC12CC3CC(CC(C3)C1)C2 [Compound A13bGa1]
- The hepatic extraction ratio (E) ([1]; canine): 0.70
- The intrinsic clearance in vitro Clint ([1]; canine, 1 μM, 60 min): 29.31 μL/min/mg protein
- The predicted intrinsic hepatic clearance Clint ([1]; canine, Fu and RB assumed to be 1): 21.72 mL/min/kg
- CLint scaled at 1 µM ([1]; dog, microsomes): 73.1 mL/min/kg
- half-life at 1 h, 1 µM ([1]; dog, microsomes): 47.3 min
- killing of the senescent cells, efficiency and selectivity [2]: highly efficient and selective in killing the senescent cells
- stability in the plasma [3]: highly stable
- toxicity to the normal cells compared with the parent compound A13 [4]: greatly reduced
- hydrolysis under the action of β-gal enzyme, release of the parent compound A13 [5]: hydrolysed under the action of β-gal enzyme to release the parent compound A13
- The hepatic extraction ratio (E) [6]: 0.34
- The intrinsic clearance in vitro Clint ([6]; 1 μM, 60 min): 15.81 μL/min/mg protein
- The predicted intrinsic hepatic clearance Clint ([6]; Fu and RB assumed to be 1): 18.72 mL/min/kg
- CLint scaled at 1 µM ([6]; microsomes): 28.3 mL/min/kg
- half-life at 1 h, 1 µM ([6]; microsomes): 87.7 min
- The hepatic extraction ratio (E) [7]: 0.69
- The intrinsic clearance in vitro Clint ([7]; 1 μM, 60 min): 65.35 μL/min/mg protein
- The predicted intrinsic hepatic clearance Clint ([7]; Fu and RB assumed to be 1): 30.18 mL/min/kg
- CLint scaled at 1 µM ([7]; microsomes): 98 mL/min/kg
- half-life at 1 h, 1 µM ([7]; microsomes): 21.2 min
- anti-inflammatory and anti-fibrotic therapeutic effects [8]: good anti-inflammatory and anti-fibrotic therapeutic effects
- overall killing activity on the senescent cells compared with the parent compound A13 [9]: somewhat reduced compared with that of the parent compound A13
